Source: US11613729B2, “Cortical spheroids and methods of making the same” (The Florida State University Research Foundation, Inc., priority 2019, dated 2023)

Legend:
hybrid spheroids [1] = experiment: MTT assay of hybrid spheroids; type: cell-based, human
Method: First, an MTT assay was conducted. The spheroids of Examples 2 and 3 were incubated with 5 mg/mL 3-(4,5-Dimethylthiazol-2-yl)-2,5-diphenyltetrazolium bromide (MTT, Sigma) solution at day 7 after three cell types were co-cultured unless otherwise noted. The absorbance of the samples was measured at 500 nm using a microplate reader (Biorad, Richmond, Calif.).
The hMSCs were labeled with CellTracker Green.

hybrid spheroids [2] = experiment: Neurite outgrowth of replated hybrid spheroids; type: cell-based, human; conditions: ROCKi Y27632 10 μM, day 21 spheroids replated three days
Method: Effects of ROCKi Y27632, Geltrex, and HA on neurogenesis of hybrid spheroids were depicted (not shown). Day 21 hybrid spheroids embedded in Geltrex (5%) or treated with ROCKi Y27632 (10 μM) were replated on 1% Geltrex-coated surface for three days. Neurite and axonal extension indicated by β-tubulin III expression was shown. Phase contrast images of axon outgrowth of day 21 spheroids were produced (not shown). Fluorescent images for day 39 spheroids: neuron marker β-tubulin III, motor neuron progenitor marker Islet-1, GABAergic neuron marker (GABA), glutamatergic neuron marker (Glutamate), cortical neuron marker (TBR1), pre-synaptic marker synapsin I and post-synaptic marker PSD95 were produced (not shown).

iNPC-iEC-MSC spheroids = experiment: Spheroid fusion / aggregation kinetics (squared aspect ratio); type: cell-based, human
Method: To form hHA hydrogels, 1% (w/v) HA from Sigma Aldrich solution was reacted with a 5-fold molar excess amount of methacrylic anhydride (MA) from Sigma Aldrich for 15 h in the dark at 4° C. The final product was collected by precipitating the solution in 5-fold volume of ethanol twice, and was then purified by dialysis using a membrane (3.5 kDa Mw cut-off, Thermofisher) to remove unreacted reagents. The purified MA-HA was filtered, lyophilized, and stored at −20° C. until further use. Next, ^1H-NMR spectroscopy (a Bruker 500M spectrometer at […]) was used to analyze and the degree of methacrylation. For culture experiments, day 14 iEC spheroids were transferred to the wells containing day 14 iNPC spheroids, at the same time hMSCs were added into the wells at different ratios (iNPC:iEC:MSC=4:2:0, 3:2:1 2:2:2, and 1:2:3). […] The morphology of hybrid spheroids were captured over 7 days by a phase contrast microscope.
Images of spheroid fusion were captured over time by a phase contrast microscope. The captured images were converted to binary images using ImageJ software (rsb.info.nih.gov/ij) and analyzed with the “particle analysis tool”. Through particle analysis, the squared aspect ratio of contact length between the two aggregates over maximum diameter (FIG. 6A) was determined to indicate the aggregate fusion process. The inter-sphere angle was measured as the intersecting angle between the tangent lines of two contacted spheroids to the touch point. For some experiments, the number of branching points and the total tube length in the area were evaluated.

Method for hMSCs in fused spheroids: The hMSCs were labeled with CellTracker Green. The hybrid (iNPC-iEC-MSC) spheroids were cultured in neural differentiation media (control) or media containing the CXCR4 inhibitor AMD3100 (100 nM, Sigma) for additional 10 days [53]. The fusion kinetics and cell localization were captured over time.

Row | SMILES | MTT activity (cell proliferation) (hybrid spheroids [1]; AMD3100 100 nM, day 24 hybrid spheroids) | area occupied by hMSCs (hMSCs in fused spheroids; AMD3100 100 nM vs control groups) | aspect ratio of hMSCs (area occupied by hMSCs to total area of fused spheroids) (hMSCs in fused spheroids; AMD3100 100 nM, day 4 to day 8) | MTT activity (hybrid spheroids [1]; 20 μM ROCKi Y27632, 7 days of tri-culture, vs no treatment) | neurite outgrowth (hybrid spheroids [2]) | aspect ratio (iNPC-iEC-MSC spheroids; 20 μM or 40 μM ROCKi, plateau over 7 days) | tendency of two spheroids to fuse (iNPC-iEC-MSC spheroids; high concentration (20 μM or 40 μM)) | integration of MSCs into iNPC-iEC spheroids (iNPC-iEC-MSC spheroids; low concentration of ROCKi (10 μM))
1 | c1cc(CN2CCCNCCNCCCNCC2)ccc1CN1CCCNCCNCCCNCC1 [AMD3100] | little influence on cell proliferation | smaller than the control groups | decreased from day 4 to day 8 |  |  |  |  | 
2 | C[C@@H](N)[C@H]1CC[C@H](C(=O)Nc2ccncc2)CC1 [Y27632] |  |  |  | increased MTT activity | enhanced | 0.5-0.7 | disrupted | did not impact
